Data as given in patent publication US9174997B2, “4-(4-cyano-2-thioaryl)dihydropyrimidinones and use thereof” (Bayer Intellectual Property GmbH, priority 2007, dated 2015).

What was measured:
rat hepatocytes = experiment: Hepatocyte assay to determine the metabolic stability; assay type: in vitro ADME; conditions: after incubation with rat hepatocytes
Procedure: B-6. Hepatocyte Assay to Determine the Metabolic Stability
The metabolic stability of test compounds in the presence of hepatocytes is determined by incubating the compounds with low concentrations (preferably below or around 1 μM) and with low cell counts (preferably 1*10^6 cells/ml) in order to ensure as far as possible linear kinetic conditions in the experiment. Seven samples of the incubation solution are taken in a fixed time pattern for the […] analysis in order to determine the half-life (i.e. the degradation) of the compound in each case. Various clearance parameters (CL) and Fmax values are calculated from this half-life (see below).
The Cl and Fmax values represent a measure of the phase 1 and phase 2 metabolism of the compounds in the hepatocytes. In order to minimize the influence of the organic solvent on the enzymes in the incubation mixtures, this concentration is generally limited to 1% (acetonitrile) or 0.1% (DMSO).
A cell count for hepatocytes in the liver of 1.1*10^8 cells/g of liver is used for calculation for all species and breeds.
The calculated parameters and their meaning are:
Representative values for the compounds according to the invention from this assay after incubation of the compounds with rat hepatocytes are shown in Table B below: […]

[1] = molecular target: human neutrophil elastase (HNE) (Homo sapiens (Human), UniProt P08246); experiment: In vitro HNE inhibition assay; assay type: biochemical; conditions: HNE concentration of 80 pM; substrate MeOSuc-Ala-Ala-Pro-Val-AMC; 37° C. for 2 hours
Procedure: B-1. In Vitro HNE Inhibition Assay
The potency of the compounds of the invention is ascertained in an in vitro inhibition assay. The HNE-mediated amidolytic cleavage of a suitable peptide substrate leads in this connection to an increase in the fluorescent light. The signal intensity of the fluorescent light is directly proportional to the enzyme activity.
Enzyme ([…]; from Serva, Heidelberg) and substrate (20 μM MeOSuc-Ala-Ala-Pro-Val-AMC; from Bachem, Weil am Rhein) are incubated in an assay volume of in total 50 μl of assay buffer (0.1 M HEPES pH 7.4, 0.5 M NaCl, 0.1% w/v BSA, 1% v/v DMSO) in a 384-well microtiter plate in the presence and absence of the test substance at 37° C. for 2 hours. […] The IC50 values are determined by plotting the intensity of the fluorescent light against the active substance concentration.

human neutrophil elastase (HNE), sequence (P08246 30-267): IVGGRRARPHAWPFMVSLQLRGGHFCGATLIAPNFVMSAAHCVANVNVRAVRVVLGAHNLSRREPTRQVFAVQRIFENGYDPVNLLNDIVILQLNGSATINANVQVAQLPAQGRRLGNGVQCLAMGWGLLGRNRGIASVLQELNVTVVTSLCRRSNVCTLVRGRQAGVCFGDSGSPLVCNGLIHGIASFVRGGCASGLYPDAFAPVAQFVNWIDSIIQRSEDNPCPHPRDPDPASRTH

Row | Structure (SMILES) | CLblood, calculated blood clearance (well stirred model) (rat hepatocytes) | Fmax, maximum possible bioavailability after oral administration (well-stirred) (rat hepatocytes) | IC50 [1]
1 | [C-]#[N+]C1=C(C)N(c2cccc(C(F)(F)F)c2)C(=O)N[C@@H]1c1ccc(C#N)cc1[S@+](C)[O-] (single isomer, unassigned; diastereomer 1) [Example 43 (Diastereomer 1)] | 1.3 L/h/kg | 69% | 0.3 nM
2 | CC1=C(C#N)[C@@H](c2ccc(C#N)cc2S(C)(=O)=O)N(C(=O)NCCO)C(=O)N1c1cccc(C(F)(F)F)c1 [Example 10, (6S)-5-Cyano-6-[4-cyano-2-(methylsulfonyl)phenyl]-N-(2-hydroxyethyl)-4-methyl-2-oxo-3-[3-(trifluoromethyl)phenyl]-3,6-dihydropyrimidine-1(2H)-carboxamide] | 1.5 L/h/kg | 65% | < 0.3 nM
3 | CC1=C(C#N)[C@@H](c2ccc(C#N)cc2S(C)(=O)=O)N(C(=O)NN(CCO)CCO)C(=O)N1c1cccc(C(F)(F)F)c1 [Example 12, (6S)-5-Cyano-6-[4-cyano-2-(methylsulfonyl)phenyl]-N′,N′-bis(2-hydroxyethyl)-4-methyl-2-oxo-3-[3-(trifluoromethyl)phenyl]-3,6-dihydropyrimidine-1(2H)-carbohydrazide] | 1.7 L/h/kg | 59% | < 0.3 nM
4 | CC1=C(C#N)[C@@H](c2ccc(C#N)cc2S(C)(=O)=O)N(CC(N)=O)C(=O)N1c1cccc(C(F)(F)F)c1 [Example 22, 2-[(6S)-5-Cyano-6-[4-cyano-2-(methylsulfonyl)phenyl]-4-methyl-2-oxo-3-[3-(trifluoromethyl)phenyl]-3,6-dihydropyrimidin-1(2H)-yl]acetamide] | 0.2 L/h/kg | 95% | 0.45 nM
5 | CC1=C(C#N)[C@@H](c2ccc(C#N)cc2S(C)(=O)=O)N(S(C)(=O)=O)C(=O)N1c1cccc(C(F)(F)F)c1 [Example 27, (4S)-4-[4-Cyano-2-(methylsulfonyl)phenyl]-6-methyl-3-(methylsulfonyl)-2-oxo-1-[3-(trifluoromethyl)phenyl]-1,2,3,4-tetrahydropyrimidine-5-carbonitrile] | 0.4 L/h/kg | 91% | < 0.3 nM
6 | CC1=C(C#N)[C@@H](c2ccc(C#N)cc2S(C)(=O)=O)N(S(=O)(=O)C2CC2)C(=O)N1c1cccc(C(F)(F)F)c1 [Example 32, (4S)-4-[4-Cyano-2-(methylsulfonyl)phenyl]-6-methyl-3-(cyclopropylsulfonyl)-2-oxo-1-[3-(trifluoromethyl)phenyl]-1,2,3,4-tetrahydropyrimidine-5-carbonitrile] | 0.1 L/h/kg | 97% | < 0.3 nM
7 | CN1CC2=C(C1=O)[C@@H](c1ccc(C#N)cc1S(C)(=O)=O)N(S(C)(=O)=O)C(=O)N2c1cccc(C(F)(F)F)c1 [Example 36, 4-{(4S)-6-Methyl-3-(methylsulfonyl)-2,5-dioxo-1-[3-(trifluoromethyl)phenyl]-2,3,4,5,6,7-hexahydro-1H-pyrrolo[3,4-d]pyrimidin-4-yl}-3-(methylsulfonyl)benzonitrile] | 0.4 L/h/kg | 89% | < 0.3 nM
8 | CC1=C(C#N)[C@@H](c2ccc(C#N)cc2S(C)(=O)=O)N(C(=O)N2CC(O)C2)C(=O)N1c1cccc(C(F)(F)F)c1 [Example 51, (4S)-4-[4-Cyano-2-(methylsulfonyl)phenyl]-3-[(3-hydroxyazetidin-1-yl)carbonyl]-6-methyl-2-oxo-1-[3-(trifluoromethyl)phenyl]-1,2,3,4-tetrahydropyrimidine-5-carbonitrile] |  |  | < 0.3 nM
9 | CC1=C(C#N)[C@@H](c2ccc(C#N)cc2S(C)(=O)=O)N(C(=O)N2CCC[C@@H](N)C2)C(=O)N1c1cccc(C(F)(F)F)c1 [Example 55, (4S)-3-[(3R)-3-Aminopiperidin-1-yl]carbonyl-4-[4-cyano-2-(methylsulfonyl)phenyl]-6-methyl-2-oxo-1-[3-(trifluoromethyl)phenyl]-1,2,3,4-tetrahydropyrimidine-5-carbonitrile] |  |  | < 0.3 nM
10 | CC1=C(C#N)[C@@H](c2ccc(C#N)cc2S(C)(=O)=O)N(C(=O)N2CCN(c3ccccn3)CC2)C(=O)N1c1cccc(C(F)(F)F)c1 [Example 69] |  |  | 0.9 nM
11 | CC1=C(C#N)[C@@H](c2ccc(C#N)cc2S(C)(=O)=O)N(C(=O)N(CC(C)O)CC(C)O)C(=O)N1c1cccc(C(F)(F)F)c1 (some centres unmarked) [Example 80] |  |  | < 0.3 nM
12 | CC1=C(C#N)[C@@H](c2ccc(C#N)cc2S(C)(=O)=O)N(C(=O)NC(C)(C)CO)C(=O)N1c1cccc(C(F)(F)F)c1 [Example 85] |  |  | < 0.3 nM
13 | CC1=C(C#N)[C@@H](c2ccc(C#N)cc2S(C)(=O)=O)N(S(=O)(=O)c2ccc(F)cc2)C(=O)N1c1cccc(C(F)(F)F)c1 [Example 91] | 0.7 L/h/kg | 83% | < 0.3 nM
14 | CC1=C(C#N)[C@@H](c2ccc(C#N)cc2S(C)(=O)=O)N(S(=O)(=O)c2cnn(C(F)F)c2C)C(=O)N1c1cccc(C(F)(F)F)c1 [Example 96] |  |  | < 0.3 nM
15 | CC1=C(C#N)[C@@H](c2ccc(C#N)cc2S(C)(=O)=O)N(S(=O)(=O)c2ccccc2C#N)C(=O)N1c1cccc(C(F)(F)F)c1 [Example 103] |  |  | < 0.3 nM
16 | CC1=C(C#N)[C@@H](c2ccc(C#N)cc2S(C)(=O)=O)N(CC#N)C(=O)N1c1cccc(C(F)(F)F)c1 [Example 116, (4S)-3-(Cyanomethyl)-4-[4-cyano-2-(methylsulfonyl)phenyl]-6-methyl-2-oxo-1-[3-(trifluoromethyl)phenyl]-1,2,3,4-tetrahydropyrimidine-5-carbonitrile] | 0.4 L/h/kg | 91% | < 0.3 nM
17 | CCS(=O)(=O)c1cc(C#N)ccc1[C@@H]1C(C#N)=C(C)N(c2cccc(C(F)(F)F)c2)C(=O)N1C [Example 128, (4S)-4-[4-Cyano-2-(ethylsulfonyl)phenyl]-3,6-dimethyl-2-oxo-1-[3-(trifluoromethyl)phenyl]-1,2,3,4-tetrahydropyrimidine-5-carbonitrile] | 0.9 L/h/kg | 78% | < 0.3 nM
18 | CC1=C(C#N)[C@@H](c2ccc(C#N)cc2S(=O)(=O)c2ccccc2)NC(=O)N1c1cccc(C(F)(F)F)c1 [Example 141, (4S)-4-{4-Cyano-2-[phenylsulfonyl]phenyl}-6-methyl-2-oxo-1-[3-(trifluoromethyl)phenyl]-1,2,3,4-tetrahydropyrimidine-5-carbonitrile] |  |  | < 0.3 nM
19 | CC1=C(C(=O)OCCO)[C@@H](c2ccc(C#N)cc2S(C)(=O)=O)N(S(C)(=O)=O)C(=O)N1c1cccc(C(F)(F)F)c1 [Example 144, 2-Hydroxyethyl (4S)-4-[4-cyano-2-(methylsulfonyl)phenyl]-6-methyl-3-(methylsulfonyl)-2-oxo-1-[3-(trifluoromethyl)phenyl]-1,2,3,4-tetrahydropyrimidine-5-carboxylate] | 1.2 L/h/kg | 72% | < 0.3 nM
